Values quoted from earlier work in US20100028426A1, “TIME-SPECIFIC DELAYED/PULSATILE RELEASE DOSAGE FORMS” (POLICHEM S.A., priority 2007, published 2010).

Tests used:
[1] = in vivo

For `CCN(C(C)=O)c1cccc(-c2ccnc3c(C#N)cnn23)c1` [Zaleplon], the “time to sleep onset (TSO)” value (sleep disorders; in vivo) is given as “effective in shortening the time to sleep onset”, the “total sleep time and number of awakening” value (sleep disorders; oral immediate release formulation taken at bed time) is given as “neither increases total sleep time, nor decreases the number of awakening” and the “time to peak concentration (t max)” value [1] is given as “approximately 1 hour”.
